Results on 20 molecules are retold here after patent US20230055237A1, “COMPOUNDS AND METHODS FOR THE TREATMENT OF CYSTIC FIBROSIS” (Flatley Discovery Lab, LLC, priority 2019, published 2023).

For this experiment, the target named is T1, CFTR (Homo sapiens, UniProt P13569, DEL508-508).
T1 construct: Primary CF airway epithelial cells were obtained from the UNC Cystic Fibrosis Tissue Procurement and Cell Culture Core; host or cells: primary CF airway epithelial cells, differentiated at the air-liquid interface
T1 sequence (P13569 with tags, fused parts or gaps DEL508-508): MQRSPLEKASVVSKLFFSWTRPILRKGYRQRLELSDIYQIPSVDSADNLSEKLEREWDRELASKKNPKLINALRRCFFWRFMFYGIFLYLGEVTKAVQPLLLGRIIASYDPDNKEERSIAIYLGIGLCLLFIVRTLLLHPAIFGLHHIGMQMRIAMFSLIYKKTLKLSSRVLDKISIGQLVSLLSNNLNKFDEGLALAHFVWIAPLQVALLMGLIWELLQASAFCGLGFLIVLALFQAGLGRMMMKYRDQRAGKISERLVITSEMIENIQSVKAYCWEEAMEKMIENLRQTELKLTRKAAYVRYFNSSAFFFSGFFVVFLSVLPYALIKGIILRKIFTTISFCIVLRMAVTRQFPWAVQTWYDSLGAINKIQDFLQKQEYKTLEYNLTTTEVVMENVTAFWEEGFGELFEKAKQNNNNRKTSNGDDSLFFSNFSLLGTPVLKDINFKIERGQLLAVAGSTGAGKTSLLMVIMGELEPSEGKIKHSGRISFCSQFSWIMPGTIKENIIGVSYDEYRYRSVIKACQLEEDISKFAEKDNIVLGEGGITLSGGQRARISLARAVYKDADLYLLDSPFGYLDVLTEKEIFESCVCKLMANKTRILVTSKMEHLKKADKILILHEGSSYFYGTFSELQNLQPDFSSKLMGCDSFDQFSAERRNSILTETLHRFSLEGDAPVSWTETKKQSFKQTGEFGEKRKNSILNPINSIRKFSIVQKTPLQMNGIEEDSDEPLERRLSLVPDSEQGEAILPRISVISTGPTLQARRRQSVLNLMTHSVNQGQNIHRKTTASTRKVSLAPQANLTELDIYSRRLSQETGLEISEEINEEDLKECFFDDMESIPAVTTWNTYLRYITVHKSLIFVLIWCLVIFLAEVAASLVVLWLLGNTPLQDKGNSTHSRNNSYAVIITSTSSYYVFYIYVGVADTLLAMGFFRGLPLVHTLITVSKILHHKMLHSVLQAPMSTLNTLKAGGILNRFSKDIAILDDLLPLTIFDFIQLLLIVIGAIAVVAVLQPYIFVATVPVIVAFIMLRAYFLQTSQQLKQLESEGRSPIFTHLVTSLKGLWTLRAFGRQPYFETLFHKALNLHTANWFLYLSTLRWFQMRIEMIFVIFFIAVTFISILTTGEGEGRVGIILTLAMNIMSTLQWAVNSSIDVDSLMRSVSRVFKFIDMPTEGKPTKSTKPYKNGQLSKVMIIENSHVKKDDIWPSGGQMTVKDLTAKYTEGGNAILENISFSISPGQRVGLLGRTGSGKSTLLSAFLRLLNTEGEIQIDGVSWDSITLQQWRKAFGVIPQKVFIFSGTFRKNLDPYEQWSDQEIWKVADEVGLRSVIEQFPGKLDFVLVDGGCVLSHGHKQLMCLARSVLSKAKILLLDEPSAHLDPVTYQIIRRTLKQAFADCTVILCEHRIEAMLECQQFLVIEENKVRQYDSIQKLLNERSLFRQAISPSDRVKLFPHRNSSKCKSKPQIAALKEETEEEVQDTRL
Kind of experiment: Equivalent current assay in primary CF airway epithelial cells (NAUC, combination with 1st site corrector FDL169 or VX-809). It is filed as cell-based. To be noted: 37° C., 24 h.

Setting [1] is: test compound 1 μM in combination with 1st site corrector VX-809 (3 μM).
The mark [2] stands for this setting: test compound 3 μM in combination with 1st site corrector VX-809 (3 μM).
[3] abbreviates: test compound 10 μM in combination with 1st site corrector VX-809 (3 μM).
Where [4] appears, read: test compound 1 μM in combination with 1st site corrector FDL169 (3 μM).
[5] abbreviates: test compound 3 μM in combination with 1st site corrector FDL169 (3 μM).

Turning to `CC(=O)NNC(=O)[C@H]1[C@@H](C(=O)Nc2cc(Cl)cc(Cl)c2)[C@H]2CCCN2[C@]12C(=O)Nc1c(Cl)cc(Cl)cc12` (single isomer, unassigned) [Example 242, (1′R,2′S,7a′R)-2′-(2-acetylhydrazine-1-carbonyl)-5,7-dichloro-N-(3,5-dichlorophenyl)-2-oxo-1′,2′,5′,6′,7′,7a′-hexahydrospiro[indoline-3,3′-pyrrolizine]-1-carboxamide], the “Nauc @ 1 μM” value under setting [1] was “+ (NAUC “+” refers to an observed NAUC <140% of positive control)”. The “Nauc @ 3 μM” value under setting [2] is recorded as “+ (NAUC “+” refers to an observed NAUC <140% of positive control)”. For the same molecule, the “Nauc @ 10 μM” value under setting [3] was “+ (NAUC “+” refers to an observed NAUC <140% of positive control)”.

Turning to `O=C(Nc1cccc2c1CCCC2)[C@H]1[C@H]2CC(F)(F)CN2[C@]2(C(=O)Nc3c(Cl)cc(Cl)cc32)[C@H]1C(=O)O` [Example 131], under setting [1], the “Nauc @ 1 μM” value is listed as “+++ (NAUC “+++” refers to an observed NAUC>170% of positive control)”. Besides, the “Nauc @ 3 μM” value under setting [2] was “+++ (NAUC “+++” refers to an observed NAUC>170% of positive control)”.

For `O=C(Nc1cc(C(F)(F)F)cc(C(F)(F)F)n1)C1C2CC3(CC3)CN2C2(C(=O)Nc3c(Cl)cc(Cl)cc32)C1C(=O)O` (stereo not shown) [Example 1], the “Nauc @ 3 μM” value under setting [2] is on record as “+++ (NAUC “+++” refers to an observed NAUC>170% of positive control)”. For the same molecule, under setting [3], the “Nauc @ 10 μM” value is recorded as “+++ (NAUC “+++” refers to an observed NAUC>170% of positive control)”.

Turning to `O=C(Nc1cc(Cl)cc(Cl)c1)C1C(C(F)(F)c2cccc(C(F)(F)F)c2)NC2(C(=O)Nc3c(Cl)cc(Cl)cc32)C1C(=O)O` (stereo not shown) [Example 70.c], the “Nauc @ 1 μM” value under setting [1] is reported as “+ (NAUC “+” refers to an observed NAUC <140% of positive control)”. For the same molecule, under setting [2], the “Nauc @ 3 μM” value is recorded as “+ (NAUC “+” refers to an observed NAUC <140% of positive control)”. Under setting [3], the “Nauc @ 10 μM” value is reported as “+++ (NAUC “+++” refers to an observed NAUC>170% of positive control)”.

Turning to `O=C(Nc1cc(Cl)cc(Cl)c1)C1C2CC3(CC3)CN2C2(C(=O)Nc3c(Cl)cc(Cl)cc32)C1C(=O)O` (stereo not shown) [Example 16], the “Nauc @ 3 μM” value under setting [2] is “+++ (NAUC “+++” refers to an observed NAUC>170% of positive control)”. For the same molecule, the “Nauc @ 10 μM” value under setting [3] is on record as “+++ (NAUC “+++” refers to an observed NAUC>170% of positive control)”.

On to `O=C(Nc1cccc(-c2ccccc2)c1)[C@H]1[C@H]2CC(F)(F)CN2[C@]2(C(=O)Nc3c(Cl)cc(Cl)cc32)[C@H]1C(=O)O` [Example 124], for which, under setting [1], the “Nauc @ 1 μM” value is “+++ (NAUC “+++” refers to an observed NAUC>170% of positive control)”. Moreover, the “Nauc @ 3 μM” value under setting [2] is on record as “+++ (NAUC “+++” refers to an observed NAUC>170% of positive control)”.

Regarding `O=C(Nc1cc(Cl)cc(Cl)c1)C1C(C(F)(F)c2ccc(Cl)cc2)NC2(C(=O)Nc3c(Cl)cc(Cl)cc32)C1C(=O)O` (stereo not shown) [Example 67.9a, 5,7-dichloro-5,7′-((4-chlorophenyl)difluoromethyl)-4′-((3,5-dichlorophenyl)carbamoyl)-2-oxospiro[indoline-3,2′-pyrrolidine]-3′-carboxylic acid], the “Nauc @ 10 μM” value under setting [3] is given as “+ (NAUC “+” refers to an observed NAUC <140% of positive control)”.

In the case of `Cc1nc2ccc(NC(=O)[C@H]3[C@H]4CC(F)(F)CN4[C@]4(C(=O)Nc5c(Cl)cc(Cl)cc54)[C@H]3C(=O)O)cc2s1` [Example 118], the “Nauc @ 1 μM” value under setting [1] is “+ (NAUC “+” refers to an observed NAUC <140% of positive control)”. In addition, under setting [2], the “Nauc @ 3 μM” value was “+ (NAUC “+” refers to an observed NAUC <140% of positive control)”. Also, the “Nauc @ 10 μM” value under setting [3] was “+ (NAUC “+” refers to an observed NAUC <140% of positive control)”.

Regarding `CN(C(=O)[C@H]1[C@H]2CC(F)(F)CN2[C@]2(C(=O)N(COC(=O)C(C)(C)C)c3c(Cl)cc(Cl)cc32)[C@H]1C(=O)OCOC(=O)C(C)(C)C)c1cc(Cl)cc(Cl)c1` (racemic) [Example 251c, rac-(pivaloyloxy)methyl (1′R,2′S,3R,7a′R)-5,7-dichloro-1-((3,5-dichlorophenyl)(methyl)carbamoyl)-6′,6′-difluoro-2-oxo-1-((pivaloyloxy)methyl)-1′,2′,5′,6′,7′,7a′-hexahydrospiro[indoline-3,3′-pyrrolizine]-2′-carboxylate], the “Nauc @ 10 μM” value under setting [3] is given as “+ (NAUC “+” refers to an observed NAUC <140% of positive control)”.

Turning to `COc1cc(C(F)(F)F)cc(N(C)C(=O)[C@H]2[C@H]3CC(F)(F)CN3[C@]3(C(=O)Nc4c(Cl)cc(Cl)cc43)[C@H]2C(=O)O)n1` [Example 133], the “Nauc @ 1 μM” value under setting [1] was “+++ (NAUC “+++” refers to an observed NAUC>170% of positive control)”. For the same molecule, the “Nauc @ 3 μM” value under setting [2] is “+++ (NAUC “+++” refers to an observed NAUC>170% of positive control)”. Moreover, the “Nauc @ 10 μM” value under setting [3] was “+++ (NAUC “+++” refers to an observed NAUC>170% of positive control)”.

Regarding `O=C(Nc1cccc2nccnc12)[C@H]1[C@H]2CC(F)(F)CN2[C@]2(C(=O)Nc3c(Cl)cc(Cl)cc32)[C@H]1C(=O)O` [Example 126], under setting [1], the “Nauc @ 1 μM” value was “++ (NAUC “++” refers to an observed NAUC 170-140% of positive control)”. Besides, the “Nauc @ 3 μM” value under setting [2] is “++ (NAUC “++” refers to an observed NAUC 170-140% of positive control)”.

Turning to `COc1c(Cl)cc(N(C)C(=O)[C@H]2[C@H]3CC(F)(F)CN3C3(C(=O)Nc4c(Cl)cc(Cl)cc43)[C@H]2C(=O)O)cc1Cl` (stereo partly shown) [Example 291], under setting [1], the “Nauc @ 1 μM” value is reported as “+ (NAUC “+” refers to an observed NAUC <140% of positive control)”. The “Nauc @ 3 μM” value under setting [2] is “+ (NAUC “+” refers to an observed NAUC <140% of positive control)”. For the same molecule, under setting [3], the “Nauc @ 10 μM” value is on record as “+++ (NAUC “+++” refers to an observed NAUC>170% of positive control)”.

For `O=C1C2C(C(F)(F)F)NC3(C(=O)Nc4c(Cl)cc(Cl)cc43)C2C(=O)N1c1cc(Cl)cc(Cl)c1` (single isomer, unassigned) [Example 81, 5,7-dichloro-4′4(3,5-dichlorophenyl)carbamoyl)-1-methyl-2-oxo-5′-(trifluoromethyl)spiro[indoline-3,2′-pyrrolidinel-3′-carboxylic acid], the “Nauc @ 1 μM” value under setting [1] is recorded as “+ (NAUC “+” refers to an observed NAUC <140% of positive control)”. Under setting [2], the “Nauc @ 3 μM” value is “++ (NAUC “++” refers to an observed NAUC 170-140% of positive control)”. The “Nauc @ 10 μM” value under setting [3] is “+ (NAUC “+” refers to an observed NAUC <140% of positive control)”.

As for `CC(C)(C)c1cccc(CNC(=O)C2C3CC(F)(F)CN3C3(C(=O)Nc4c(Cl)cc(Cl)cc43)C2C(=O)O)c1` (stereo not shown) [Example 54], the “Nauc @ 3 μM” value under setting [2] is “+ (NAUC “+” refers to an observed NAUC <140% of positive control)”. Further, the “Nauc @ 10 μM” value under setting [3] is reported as “+++ (NAUC “+++” refers to an observed NAUC>170% of positive control)”.

For the molecule `CC(C)(C)c1cccc(CCNC(=O)C2C3CCCN3C3(C(=O)Nc4c(Cl)cc(Cl)cc43)C2C(=O)O)c1` (stereo not shown) [Example 53], the “Nauc @ 3 μM” value under setting [2] was “+++ (NAUC “+++” refers to an observed NAUC>170% of positive control)”. Moreover, the “Nauc @ 10 μM” value under setting [3] is listed as “+++ (NAUC “+++” refers to an observed NAUC>170% of positive control)”.

Take `O=C(O)[C@H]1[C@@H](C(=O)N(CC2CC2)c2cc(Cl)cc(Cl)c2)[C@@H](C(F)(F)F)NC12C(=O)Nc1c(Cl)cc(Cl)cc12` (single isomer, unassigned) [Example 270b]: the “Nauc @ 1 μM” value under setting [4] is given as “+ (NAUC “+” refers to an observed NAUC <140% of positive control)”. Also, the “Nauc @ 3 μM” value under setting [5] is listed as “++ (NAUC “++” refers to an observed NAUC 170-140% of positive control)”.

`O=C(Nc1nccc2cccnc12)[C@H]1[C@H]2CC(F)(F)CN2[C@]2(C(=O)Nc3c(Cl)cc(Cl)cc32)[C@H]1C(=O)O` [Example 135]: the “Nauc @ 1 μM” value under setting [1] is “+ (NAUC “+” refers to an observed NAUC <140% of positive control)”. Besides, under setting [2], the “Nauc @ 3 μM” value is given as “+ (NAUC “+” refers to an observed NAUC <140% of positive control)”. Besides, the “Nauc @ 10 μM” value under setting [3] is “+ (NAUC “+” refers to an observed NAUC <140% of positive control)”.

Turning to `CON(C)C(=O)[C@H]1[C@@H](C(=O)Nc2cc(Cl)cc(Cl)c2)[C@H]2CCCN2[C@]12C(=O)Nc1c(Cl)cc(Cl)cc12` (single isomer, unassigned) [Example 241, (1′R,2′ S,7a′R)-5,7-dichloro-N1′-(3,5-dichlorophenyl)-N2′-methoxy-N2′-methyl-2-oxo-1′,2′,5′,6′,7′,7a′-hexahydrospiro[indoline-3,3′-pyrrolizine]-1′,2′-dicarboxamide], under setting [1], the “Nauc @ 1 μM” value is “++ (NAUC “++” refers to an observed NAUC 170-140% of positive control)”. Under setting [2], the “Nauc @ 3 μM” value was “+++ (NAUC “+++” refers to an observed NAUC>170% of positive control)”. Moreover, under setting [3], the “Nauc @ 10 μM” value is “++ (NAUC “++” refers to an observed NAUC 170-140% of positive control)”.

`CC(=O)OCOC(=O)[C@H]1[C@@H](C(=O)N(C)c2cc(Cl)cc(Cl)c2)[C@H]2CC(F)(F)CN2C12C(=O)Nc1c(Cl)cc(Cl)cc12` (mixture of isomers) [Example 257, acetoxymethyl (1′R,2′S,3R,7a′R)-5,7-dichloro-1-((3,5-dichlorophenyl)(methyl)carbamoyl)-6′,6′-difluoro-2-oxo-1′,2′,5′,6′,7′,7a′-hexahydrospiro[indoline-3,3′-pyrrolizine]-2′-carboxylate]: the “Nauc @ 10 μM” value under setting [3] is “+++ (NAUC “+++” refers to an observed NAUC>170% of positive control)”.

As to `COc1ccc2c(c1)C1(C(=O)N2)[C@@H](C(=O)O)[C@@H](C(=O)N(C)c2cc(Cl)cc(Cl)c2)[C@H]2CC(F)(F)CN21` (stereo partly shown) [Example 103], the “Nauc @ 1 μM” value under setting [4] is listed as “+ (NAUC “+” refers to an observed NAUC <140% of positive control)”. In addition, the “Nauc @ 3 μM” value under setting [5] was “+ (NAUC “+” refers to an observed NAUC <140% of positive control)”. Further, the “Nauc @ 10 μM” value (test compound 10 μM in combination with 1st site corrector FDL169 (3 μM)) was “+ (NAUC “+” refers to an observed NAUC <140% of positive control)”.
